Data from ChEMBL document CHEMBL1140679, “The identification of potent, selective, and bioavailable cathepsin S inhibitors” (Bioorg Med Chem Lett, 2007).

Key:
Cathepsin B [1] = biological target: Cathepsin B (Rattus norvegicus, UniProt P00787); test: Inhibition of rat liver lysosomal cathepsin B
Cathepsin S [2] = biological target: Cathepsin S (Mus musculus, UniProt O70370); test: Inhibition of mouse recombinant cathepsin S
Cathepsin B [3] = biological target: Cathepsin B (Homo sapiens, UniProt P07858); test: Inhibition of human cathepsin B
[4] = Inhibition of antigen presentation in mouse B cells; assay type: functional, cell-based
Cathepsin B [5] = biological target: Cathepsin B (Mus musculus, UniProt P10605); test: Inhibition of mouse recombinant cathepsin B
Procathepsin L [6] = biological target: T1, Procathepsin L (Rattus norvegicus, UniProt P07154); test: Inhibition of rat liver lysosomal cathepsin L
T1 sequence (P07154 whole entry): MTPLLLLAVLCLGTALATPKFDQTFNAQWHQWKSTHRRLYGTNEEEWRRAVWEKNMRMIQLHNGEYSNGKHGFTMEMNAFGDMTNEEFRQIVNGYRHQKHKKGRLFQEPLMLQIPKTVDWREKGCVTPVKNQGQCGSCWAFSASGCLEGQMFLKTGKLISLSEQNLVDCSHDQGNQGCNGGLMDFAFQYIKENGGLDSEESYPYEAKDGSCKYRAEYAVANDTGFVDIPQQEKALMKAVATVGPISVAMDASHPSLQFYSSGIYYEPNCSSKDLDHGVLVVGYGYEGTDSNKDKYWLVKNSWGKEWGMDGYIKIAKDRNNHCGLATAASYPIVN

Cathepsin K [7] = biological target: T2, Cathepsin K (Homo sapiens, UniProt P43235); test: Inhibition of human cathepsin K
T2 sequence (P43235 whole entry): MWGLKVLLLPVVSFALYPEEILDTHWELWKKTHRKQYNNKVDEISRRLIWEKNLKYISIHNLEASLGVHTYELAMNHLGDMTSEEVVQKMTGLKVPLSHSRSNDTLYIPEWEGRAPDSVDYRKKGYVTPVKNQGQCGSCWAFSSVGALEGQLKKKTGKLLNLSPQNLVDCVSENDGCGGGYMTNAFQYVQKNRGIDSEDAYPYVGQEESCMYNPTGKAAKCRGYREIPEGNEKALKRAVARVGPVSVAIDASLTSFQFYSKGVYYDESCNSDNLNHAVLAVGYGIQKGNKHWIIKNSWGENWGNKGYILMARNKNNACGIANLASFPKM

Cathepsin S [8] = biological target: Cathepsin S (Rattus norvegicus, UniProt Q02765); test: Inhibition of rat spleen cathepsin S; assay type: tissue-based
Cathepsin S [9] = biological target: Cathepsin S (Homo sapiens, UniProt P25774); test: Inhibition of human cathepsin S
Cathepsin K [10] = biological target: T3, Cathepsin K (Mus musculus, UniProt P55097); test: Inhibition of mouse recombinant cathepsin K
T3 sequence (P55097 whole entry): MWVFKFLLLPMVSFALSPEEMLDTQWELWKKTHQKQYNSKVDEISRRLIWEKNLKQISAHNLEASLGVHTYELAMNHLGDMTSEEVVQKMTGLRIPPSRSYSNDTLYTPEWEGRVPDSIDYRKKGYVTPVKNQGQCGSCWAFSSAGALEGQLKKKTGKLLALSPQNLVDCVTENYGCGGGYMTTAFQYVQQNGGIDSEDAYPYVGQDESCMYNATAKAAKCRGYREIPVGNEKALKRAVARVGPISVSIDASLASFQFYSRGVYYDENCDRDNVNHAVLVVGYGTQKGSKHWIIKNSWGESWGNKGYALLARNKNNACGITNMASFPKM

Procathepsin L [11] = biological target: Procathepsin L (Homo sapiens, UniProt P07711); test: Inhibition of human cathepsin L
Procathepsin L [12] = biological target: T4, Procathepsin L (Mus musculus, UniProt P06797); test: Inhibition of mouse recombinant cathepsin L
T4 sequence (P06797 whole entry): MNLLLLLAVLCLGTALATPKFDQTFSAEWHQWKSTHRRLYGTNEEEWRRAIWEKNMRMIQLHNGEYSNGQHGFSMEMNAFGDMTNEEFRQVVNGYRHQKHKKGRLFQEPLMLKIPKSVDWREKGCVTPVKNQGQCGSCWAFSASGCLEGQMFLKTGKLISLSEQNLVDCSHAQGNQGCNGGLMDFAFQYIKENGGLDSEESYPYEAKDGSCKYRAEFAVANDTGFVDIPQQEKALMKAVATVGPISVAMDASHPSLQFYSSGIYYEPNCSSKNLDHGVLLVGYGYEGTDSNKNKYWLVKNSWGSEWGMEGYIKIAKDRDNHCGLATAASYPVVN

[13] = Half life in Sprague-Dawley rat; assay type: ADME, organism-based; settings: in vivo
[14] = Cmax in Sprague-Dawley rat; assay type: ADME, organism-based; settings: in vivo
[15] = Bioavailability in Sprague-Dawley rat; assay type: ADME, organism-based; settings: in vivo

Cathepsin S (Homo sapiens, UniProt P25774), sequence (P25774 whole entry): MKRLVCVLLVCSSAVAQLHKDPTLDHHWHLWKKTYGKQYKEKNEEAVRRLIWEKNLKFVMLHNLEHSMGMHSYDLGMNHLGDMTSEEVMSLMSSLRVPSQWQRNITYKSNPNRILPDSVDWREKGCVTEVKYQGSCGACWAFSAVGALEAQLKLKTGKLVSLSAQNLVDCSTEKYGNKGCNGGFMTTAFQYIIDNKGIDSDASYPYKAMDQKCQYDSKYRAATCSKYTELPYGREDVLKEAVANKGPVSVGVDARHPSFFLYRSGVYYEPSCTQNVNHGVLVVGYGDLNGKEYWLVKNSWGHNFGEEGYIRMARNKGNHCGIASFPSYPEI
Cathepsin S (Rattus norvegicus, UniProt Q02765), sequence (Q02765 whole entry): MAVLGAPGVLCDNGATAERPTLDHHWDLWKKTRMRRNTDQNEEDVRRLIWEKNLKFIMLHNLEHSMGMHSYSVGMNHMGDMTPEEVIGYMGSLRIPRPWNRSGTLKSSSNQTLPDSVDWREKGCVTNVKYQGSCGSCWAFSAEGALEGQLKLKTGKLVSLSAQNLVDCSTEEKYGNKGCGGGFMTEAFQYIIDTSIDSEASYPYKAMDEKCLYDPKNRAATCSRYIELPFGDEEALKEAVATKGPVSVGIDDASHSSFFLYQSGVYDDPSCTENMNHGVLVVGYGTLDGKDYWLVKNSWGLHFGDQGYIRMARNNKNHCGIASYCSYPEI
Cathepsin B (Mus musculus, UniProt P10605), sequence (P10605 whole entry): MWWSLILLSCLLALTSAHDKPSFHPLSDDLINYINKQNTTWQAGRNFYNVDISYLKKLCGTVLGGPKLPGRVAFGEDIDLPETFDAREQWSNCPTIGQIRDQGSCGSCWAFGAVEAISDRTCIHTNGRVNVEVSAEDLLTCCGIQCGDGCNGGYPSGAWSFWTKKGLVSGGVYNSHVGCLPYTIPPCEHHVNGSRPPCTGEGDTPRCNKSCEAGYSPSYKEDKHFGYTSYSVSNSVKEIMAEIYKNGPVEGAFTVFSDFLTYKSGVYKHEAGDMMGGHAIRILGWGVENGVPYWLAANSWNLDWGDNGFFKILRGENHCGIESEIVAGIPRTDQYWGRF
Procathepsin L (Homo sapiens, UniProt P07711), sequence (P07711 whole entry): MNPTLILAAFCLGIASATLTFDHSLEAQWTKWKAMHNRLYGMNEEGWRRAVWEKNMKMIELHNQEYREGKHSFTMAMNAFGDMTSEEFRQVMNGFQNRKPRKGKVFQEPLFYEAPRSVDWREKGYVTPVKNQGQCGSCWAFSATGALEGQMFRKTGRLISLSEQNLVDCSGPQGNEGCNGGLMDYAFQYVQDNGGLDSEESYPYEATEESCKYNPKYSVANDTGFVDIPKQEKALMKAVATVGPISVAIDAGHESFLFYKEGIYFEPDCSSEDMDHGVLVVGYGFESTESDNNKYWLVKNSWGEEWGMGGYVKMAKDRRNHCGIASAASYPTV
Cathepsin S (Mus musculus, UniProt O70370), sequence (O70370 whole entry): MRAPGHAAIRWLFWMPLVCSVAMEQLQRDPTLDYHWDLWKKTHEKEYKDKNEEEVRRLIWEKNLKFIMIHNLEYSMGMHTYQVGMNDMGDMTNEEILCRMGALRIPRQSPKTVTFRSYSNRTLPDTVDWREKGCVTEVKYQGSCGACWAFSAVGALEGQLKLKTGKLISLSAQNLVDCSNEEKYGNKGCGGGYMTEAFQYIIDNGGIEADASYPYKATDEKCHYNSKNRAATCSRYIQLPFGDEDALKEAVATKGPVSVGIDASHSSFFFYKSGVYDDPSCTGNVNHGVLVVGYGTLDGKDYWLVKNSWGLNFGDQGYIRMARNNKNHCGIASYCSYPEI
Cathepsin B (Rattus norvegicus, UniProt P00787), sequence (P00787 whole entry): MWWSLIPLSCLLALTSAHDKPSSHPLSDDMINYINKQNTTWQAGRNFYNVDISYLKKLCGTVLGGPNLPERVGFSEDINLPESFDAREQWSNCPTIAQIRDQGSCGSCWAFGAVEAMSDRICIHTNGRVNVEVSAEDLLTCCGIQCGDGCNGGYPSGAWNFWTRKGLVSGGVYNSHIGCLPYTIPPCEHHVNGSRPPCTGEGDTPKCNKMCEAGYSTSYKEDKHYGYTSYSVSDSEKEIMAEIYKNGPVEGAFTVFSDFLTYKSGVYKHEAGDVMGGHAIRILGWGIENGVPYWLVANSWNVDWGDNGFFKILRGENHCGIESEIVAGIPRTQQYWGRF

SMILES | IC50 (Cathepsin B [1]) [nM] | IC50 (Cathepsin S [2]) [nM] | IC50 (Cathepsin B [3]) [nM] | IC50 [4] [nM] | IC50 (Cathepsin B [5]) [nM] | IC50 (Procathepsin L [6]) [nM] | IC50 (Cathepsin K [7]) [nM] | IC50 (Cathepsin S [8]) [nM] | IC50 (Cathepsin S [9]) [nM] | IC50 (Cathepsin K [10]) [nM] | IC50 (Procathepsin L [11]) [nM] | IC50 (Procathepsin L [12]) [nM] | half-life [13] [h] | Cmax [14] [nM] | bioavailability [15] [%]
CC(C)C[C@@H](NC(=O)N1CCOCC1)C(=O)N[C@@H](/C=C/S(=O)(=O)c1ccccc1)CCc1ccccc1 | 735 | 0.5 | 4500 | 1.2 | 1280 | 4.1 | 6.2 | 1.7 | 1.2 | 388 | – | – | – | – | –
CS(=O)(=O)C[C@H](N[C@@H](c1ccc(-c2ccc(F)cc2)cc1)C(F)(F)F)C(=O)NC1(C#N)CC1 | – | – | 170 | – | – | – | 5.3 | – | 10 | – | > 10000 | – | – | – | –
CC(C)C[C@H](N[C@@H](c1ccc(-c2ccc(S(C)(=O)=O)cc2)cc1)C(F)(F)F)C(=O)NC1(C#N)CC1 | – | – | 7740 | – | – | – | 0.3 | – | 265 | – | 456 | – | – | – | –
CS(=O)(=O)C[C@H](N[C@@H](c1ccccc1)C(F)(F)F)C(=O)NC1(C#N)CC1 | – | – | 1980 | – | – | – | 141 | – | 2.5 | – | 1040 | – | – | – | –
CSC[C@H](N[C@@H](c1ccc(Br)cc1)C(F)(F)F)C(=O)NC1(C#N)CC1 | – | – | 417 | – | – | – | 5 | – | 80 | – | 456 | – | – | – | –
N#CC1(NC(=O)[C@H](CS(=O)(=O)CC2CC2)N[C@@H](c2ccccc2)C(F)(F)F)CC1 | – | – | 287 | – | – | – | 555 | – | 0.6 | – | 68 | – | – | – | –
CS(=O)(=O)C[C@H](N[C@@H](c1cccc(F)c1)C(F)(F)F)C(=O)NC1(C#N)CC1 | – | – | 3850 | – | – | – | 314 | – | 6.4 | – | 911 | – | – | – | –
N#CC1(NC(=O)[C@H](CS(=O)(=O)c2ccc(Br)cc2)N[C@@H](c2ccccc2)C(F)(F)F)CC1 | 1810 | 0.2 | 3450 | – | 1750 | 72 | 290 | 66 | 0.3 | 1320 | 15 | 39 | – | – | –
N#CC1(NC(=O)[C@H](CS(=O)(=O)c2nc3ccccc3s2)N[C@@H](c2ccccc2)C(F)(F)F)CC1 | – | – | 2970 | – | – | – | 825 | – | 1.3 | – | 114 | – | – | – | –
N#CC1(NC(=O)[C@H](CS(=O)(=O)Cc2ccccc2-c2ccccc2)N[C@@H](c2ccc(F)cc2)C(F)(F)F)CC1 | – | – | 4040 | – | – | – | > 10000 | – | 1.8 | – | > 10000 | – | – | – | –
N#CC1(NC(=O)[C@H](CS(=O)(=O)c2ccc(F)cc2)N[C@@H](c2ccc(F)cc2)C(F)(F)F)CC1 | – | – | 7280 | – | – | – | 305 | – | 0.4 | – | 22 | – | – | – | –
N#CC1(NC(=O)[C@H](CS(=O)(=O)CC2CC2)N[C@@H](c2ccc(F)cc2)C(F)(F)F)CC1 | 272 | 0.9 | 1000 | – | 253 | 738 | 2000 | 759 | 0.5 | > 10000 | 188 | 332 | 3.8 | 2800 | 40
N#CC1(NC(=O)[C@H](CS(=O)(=O)c2cccc(Br)c2)N[C@@H](c2ccccc2)C(F)(F)F)CC1 | 4700 | < 0.2 | 6630 | – | 4010 | 132 | 269 | 44 | 0.2 | 2550 | 23 | 90 | – | – | –
N#CC1(NC(=O)[C@H](CS(=O)(=O)Cc2cccc(F)c2F)N[C@@H](c2ccccc2)C(F)(F)F)CC1 | – | – | 1840 | – | – | – | > 10000 | – | 0.3 | – | 105 | – | – | – | –
CC(C)CS(=O)(=O)C[C@H](N[C@@H](c1ccc(F)cc1)C(F)(F)F)C(=O)NC1(C#N)CC1 | – | – | 337 | – | – | – | 3060 | – | 0.4 | – | 132 | – | 1.6 | 140 | 5
N#CC1(NC(=O)[C@H](CS(=O)(=O)Cc2ccc(F)cc2)N[C@@H](c2ccccc2)C(F)(F)F)CC1 | – | – | 2780 | – | – | – | > 10000 | – | 0.5 | – | 86 | – | – | – | –
N#CC1(NC(=O)[C@H](CS(=O)(=O)Cc2cccc(F)c2F)N[C@@H](c2ccc(F)cc2)C(F)(F)F)CC1 | 384 | 0.8 | 1320 | – | 384 | 399 | > 10000 | 21 | 0.3 | > 10000 | 121 | 662 | 1.2 | 46 | 3
N#CC1(NC(=O)[C@H](CS(=O)(=O)c2nccs2)N[C@@H](c2ccccc2)C(F)(F)F)CC1 | – | – | 3610 | – | – | – | 376 | – | 5 | – | 181 | – | – | – | –
N#CC1(NC(=O)[C@H](CS(=O)(=O)Cc2c(F)cccc2F)N[C@@H](c2ccc(F)cc2)C(F)(F)F)CC1 | – | – | > 10000 | – | – | – | > 10000 | – | 0.7 | – | 249 | – | – | – | –
C[S+]([O-])C[C@H](N[C@@H](c1ccc(Br)cc1)C(F)(F)F)C(=O)NC1(C#N)CC1 (stereo partly specified) | – | – | 8030 | – | – | – | 639 | – | 2170 | – | > 10000 | – | – | – | –
CC(C)C[C@H](N[C@@H](c1ccc(-c2ccc(S(C)(=O)=O)cc2)cc1)C(F)(F)F)C(=O)NCC#N | 925 | 254 | – | 4810 | 540 | 90 | 0.2 | 2440 | – | 43 | – | 254 | – | – | –
CC(C)(c1ccc(F)cc1)S(=O)(=O)C[C@H](N[C@@H](c1ccc(F)cc1)C(F)(F)F)C(=O)NC1(C#N)CC1 | – | – | > 10000 | – | – | – | > 10000 | – | 627 | – | > 10000 | – | – | – | –
